We go through six compounds from patent US7776880B2, “Derivatives of pyrrolizine, indolizine and quinolizine, preparation thereof and therapeutic use thereof” (sanofi-aventis, priority 2006, dated 2010).

Counter-ions that a name gives are not always drawn.

System in the first data set: not given
Test: not given
Conditions: not given
Regarding `O=C(N[C@H](c1ccccc1)[C@@H]1CCC[C@H]2CCCN21)c1cccc(C(F)(F)F)c1Cl` (racemic) (as salt: HCl) [Compound 2, trans-erythro-2-chloro-N-[(octahydroindolizin-5-yl)phenylmethyl]-3-trifluoromethyl-benzamide hydrochloride 1:1], the melting point (usually the temperature, or range, at which the solid turns liquid) lay within 132 to 134 °C. On the same count and under the same terms, with `O=C(NC(c1ccccc1)C1CCC2CCCCN21)c1cccc(C(F)(F)F)c1Cl` (racemic) (as salt: HCl) [Compound 5, trans-threo-2-Chloro-N-[(octahydroindolizin-3-yl)phenylmethyl]-3-trifluoromethyl-benzamide hydrochloride 1.1] the figure was 138 to 139 °C. Still for that read-out and setting: with `O=C(NC(c1ccccc1)C1CCCC2CCCN21)c1cccc(C(F)(F)F)c1Cl` (racemic) (as salt: HCl) [Compound 1, trans-threo-2-Chloro-N-[(octahydroindolizin-5-yl)phenylmethyl]-3-trifluoromethyl-benzamide hydrochloride 1:1] the figure was 132 to 134 °C.

A further data set deals with T1, native human transporter GlyT1 (Homo sapiens, UniProt P48067).
T1 construct: SK-N-MC cells (human neuroepithelial cells) expressing the native human transporter GlyT1; endogenous in cells; host or cells: SK-N-MC (human neuroepithelial cells)
T1 sequence (P48067 1-706): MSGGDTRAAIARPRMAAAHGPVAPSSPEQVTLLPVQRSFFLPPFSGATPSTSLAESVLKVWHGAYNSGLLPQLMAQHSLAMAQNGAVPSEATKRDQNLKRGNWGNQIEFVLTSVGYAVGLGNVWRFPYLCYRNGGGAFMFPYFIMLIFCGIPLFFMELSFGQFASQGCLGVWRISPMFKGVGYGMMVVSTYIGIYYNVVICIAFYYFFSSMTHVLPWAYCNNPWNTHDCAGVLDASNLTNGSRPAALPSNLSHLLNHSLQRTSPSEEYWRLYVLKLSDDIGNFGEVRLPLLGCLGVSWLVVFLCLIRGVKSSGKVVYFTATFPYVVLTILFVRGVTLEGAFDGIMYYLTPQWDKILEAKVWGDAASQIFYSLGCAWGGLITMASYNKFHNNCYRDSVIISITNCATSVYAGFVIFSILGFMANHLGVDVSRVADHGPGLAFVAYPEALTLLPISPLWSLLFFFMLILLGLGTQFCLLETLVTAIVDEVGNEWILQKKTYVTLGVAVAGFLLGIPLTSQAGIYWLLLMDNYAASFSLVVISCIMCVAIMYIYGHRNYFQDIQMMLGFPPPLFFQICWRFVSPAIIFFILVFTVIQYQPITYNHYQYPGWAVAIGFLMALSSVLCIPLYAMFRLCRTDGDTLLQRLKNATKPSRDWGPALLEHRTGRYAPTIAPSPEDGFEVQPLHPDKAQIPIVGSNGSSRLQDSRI
In words: Uptake of [14C]glycine in SK-N-MC cells expressing the native human transporter GlyT1. In kind it is cell-based. The following applies: 10 μM [14C]glycine, 10 min preincubation and 10 min incubation at 37° C., pH 7.4, read-out: IC50, the concentration of the compound which reduces by 50% the specific uptake of glycine. As for the experimental part:
Study of glycine transportation in SK-N-MC cells expressing the native human transporter GlyT1.
The uptake of [^14C]glycine is studied in SK-N-MC cells (human neuroepithelial cells) expressing the native human transporter GlyT1 by measuring the radioactivity incorporated in the presence or absence of the test compound. The cells are cultured as a monolayer for 48 hours in plates pretreated with 0.02% fibronectin. On the day of the experiment, the culture medium is removed and the cells are washed with Krebs-HEPES (4-(2-hydroxyethyl)piperazine-1-ethanesulphonic acid) buffer at pH 7.4. After preincubation for 10 minutes at 37° C. in the presence either of buffer (control batch) or of test compound at various concentrations or of 10 mM of glycine (determination of the non-specific uptake), 10 μM of [^14C]glycine (specific activity 112 mCi/mmol) are subsequently added. Incubation is continued for 10 min at 37° C. and the reaction is halted by washing twice with pH 7.4 Krebs-HEPES buffer. The radioactivity incorporated by the cells is then estimated after adding 100 μl of liquid scintillant and stirring for 1 h. Counting is carried out on a Microbeta Tri-Lux™ counter. The effectiveness of the compound is determined by the IC50, the concentration of the compound which reduces by 50% the specific uptake of glycine, defined by the difference in radioactivity incorporated by the control batch and the batch which received the 10 mM glycine.
As for `O=C(NC(c1ccccc1)C1CCCC2CCCN21)c1cccc(C(F)(F)F)c1Cl` (racemic) [Compound 1, trans-threo-2-Chloro-N-[(octahydroindolizin-5-yl)phenylmethyl]-3-trifluoromethyl-benzamide hydrochloride 1:1], the IC50 came out at 0.08 µM. Turning to `O=C(N[C@H](c1ccccc1)[C@@H]1CCC[C@H]2CCCN21)c1cccc(C(F)(F)F)c1Cl` (racemic) [Compound 2, trans-erythro-2-chloro-N-[(octahydroindolizin-5-yl)phenylmethyl]-3-trifluoromethyl-benzamide hydrochloride 1:1], the IC50 is 0.023 µM. `O=C(NC(c1ccccc1)C1CCC2CCCCN21)c1cccc(C(F)(F)F)c1Cl` (racemic) [Compound 5, trans-threo-2-Chloro-N-[(octahydroindolizin-3-yl)phenylmethyl]-3-trifluoromethyl-benzamide hydrochloride 1.1]: the IC50 was 0.003 µM.
